Assay results reported in patent publication US9938279B2, “Method for treating disease or condition susceptible to amelioration by AMPK activators and compounds of formula which are useful to activate AMP-activated protein kinase (AMPK)” (ENERGENESIS BIOMEDICAL CO., LTD, priority 2013, dated 2018).

How the values were obtained:
[1] = system: AMPK; assay: AMPK activation assay (western blot phospho-AMPK Thr172) in 3T3-L1; assay type: cell-based, mouse; details: 3T3-L1 cells, 30 min treatment
Description: (§1) Effects of compounds on AMPK activation were analyzed in mouse muscle cell C2C12, mouse fibroblast 3T3-L1 and human hepatocyte Hep G2. Those cell lines were cultured in high-glucose Dulbecco's modified Eagle's medium (DMEM) containing 10% fetal bovine serum (FBS), 4 mM L-glutamine, 2 mM sodium pyruvate and 1% penicillin/streptomycin (Invitrogen GibcoBRL, Carlsbad, Calif., USA) at 37° C. under 5% CO2. Cells were plated at 3×10^5 per well (6-well plate). 24 h after plating, cells were treated with indicated compounds for 30 min followed by cell lysis and western blot analysis. Equal amount of protein were separated by SDS-PAGE and then electroblotted on to PVDF membranes. Membranes were blocked with 3% BSA in PBS for 60 min and incubated with anti-phospho-AMPK (Thr172) antibody (1:2,000, Cell signaling), anti-AMPK antibody (1:2,000, Cell signaling), anti-Glut4 antibody (1:1,000, Millipore) or anti-actin antibody (1:5,000; Chemicon International) at 4° C. overnight followed by the corresponding secondary antibody for 1 h at room temperature (RT). Immunoreactive bands were detected by enhanced chemiluminescence (ECL; Pierce, Rockford, Ill., USA) and recorded using Kodakfilm (Rochester, N.Y., USA). The detected signals were scanned and then quantified by using TotalLab Quant software (TotalLab).

[2] = system: AMPK; assay: AMPK activation assay (western blot phospho-AMPK Thr172) in Hep G2; assay type: cell-based, human; details: Hep G2 cells, 30 min treatment
Description: as §1

[3] = system: AMPK; assay: AMPK activation assay (western blot phospho-AMPK Thr172) in C2C12; assay type: cell-based, mouse; details: C2C12 cells, 30 min treatment
Description: as §1

Nc1nc(I)nc2nc[nH]c12 [Example 2-iodoadenine, 2-iodoadenine]
AMPK activation (% to control) 3T3-L1 ([1]; 1 microM): 116 % to control | AMPK activation (% to control) 3T3-L1 ([1]; 10 microM): 179 % to control | AMPK activation (% to control) 3T3-L1 ([1]; 100 microM): 237 % to control | AMPK activation (% to control) 3T3-L1 ([1]; 200 microM): 358 % to control | AMPK activation (% to control) Hep G2 ([2]; 1 microM): 115 % to control | AMPK activation (% to control) Hep G2 ([2]; 10 microM): 151 % to control | AMPK activation (% to control) Hep G2 ([2]; 100 microM): 227 % to control | AMPK activation (% to control) Hep G2 ([2]; 200 microM): 341 % to control | AMPK activation (% to control) C2C12 ([3]; 1 microM): 114 % to control | AMPK activation (% to control) C2C12 ([3]; 10 microM): 143 % to control | AMPK activation (% to control) C2C12 ([3]; 100 microM): 214 % to control | AMPK activation (% to control) C2C12 ([3]; 200 microM): 311 % to control

Oc1nc(S)nc2nc[nH]c12 [Example 2-mercapto-6-hydroxypurine, 2-mercapto-6-hydroxypurine]
AMPK activation (% to control) 3T3-L1 ([1]; 1 microM): 115 % to control | AMPK activation (% to control) 3T3-L1 ([1]; 10 microM): 147 % to control | AMPK activation (% to control) 3T3-L1 ([1]; 100 microM): 220 % to control | AMPK activation (% to control) 3T3-L1 ([1]; 200 microM): 308 % to control | AMPK activation (% to control) Hep G2 ([2]; 1 microM): 113 % to control | AMPK activation (% to control) Hep G2 ([2]; 10 microM): 132 % to control | AMPK activation (% to control) Hep G2 ([2]; 100 microM): 209 % to control | AMPK activation (% to control) Hep G2 ([2]; 200 microM): 315 % to control | AMPK activation (% to control) C2C12 ([3]; 1 microM): 109 % to control | AMPK activation (% to control) C2C12 ([3]; 10 microM): 148 % to control | AMPK activation (% to control) C2C12 ([3]; 100 microM): 251 % to control | AMPK activation (% to control) C2C12 ([3]; 200 microM): 333 % to control

Nc1nc(S)nc2nc[nH]c12 [Example 2-mercaptoadenine, 2-mercaptoadenine]
AMPK activation (% to control) 3T3-L1 ([1]; 1 microM): 112 % to control | AMPK activation (% to control) 3T3-L1 ([1]; 10 microM): 128 % to control | AMPK activation (% to control) 3T3-L1 ([1]; 100 microM): 204 % to control | AMPK activation (% to control) 3T3-L1 ([1]; 200 microM): 297 % to control | AMPK activation (% to control) Hep G2 ([2]; 1 microM): 118 % to control | AMPK activation (% to control) Hep G2 ([2]; 10 microM): 119 % to control | AMPK activation (% to control) Hep G2 ([2]; 100 microM): 195 % to control | AMPK activation (% to control) Hep G2 ([2]; 200 microM): 308 % to control | AMPK activation (% to control) C2C12 ([3]; 1 microM): 105 % to control | AMPK activation (% to control) C2C12 ([3]; 10 microM): 115 % to control | AMPK activation (% to control) C2C12 ([3]; 100 microM): 221 % to control | AMPK activation (% to control) C2C12 ([3]; 200 microM): 289 % to control

Cc1nc(O)c2[nH]cnc2n1 [Example 2-methyl-6-hydroxypurine, 2-methyl-6-hydroxypurine]
AMPK activation (% to control) 3T3-L1 ([1]; 1 microM): 112 % to control | AMPK activation (% to control) 3T3-L1 ([1]; 10 microM): 144 % to control | AMPK activation (% to control) 3T3-L1 ([1]; 100 microM): 228 % to control | AMPK activation (% to control) 3T3-L1 ([1]; 200 microM): 338 % to control | AMPK activation (% to control) Hep G2 ([2]; 1 microM): 116 % to control | AMPK activation (% to control) Hep G2 ([2]; 10 microM): 162 % to control | AMPK activation (% to control) Hep G2 ([2]; 100 microM): 219 % to control | AMPK activation (% to control) Hep G2 ([2]; 200 microM): 347 % to control | AMPK activation (% to control) C2C12 ([3]; 1 microM): 109 % to control | AMPK activation (% to control) C2C12 ([3]; 10 microM): 139 % to control | AMPK activation (% to control) C2C12 ([3]; 100 microM): 241 % to control | AMPK activation (% to control) C2C12 ([3]; 200 microM): 305 % to control

O=c1[nH]cc(F)c(=O)[nH]1 [Example 5-fluorouracil, 5-fluorouracil]
AMPK activation (% to control) 3T3-L1 ([1]; 1 microM): 108 % to control | AMPK activation (% to control) 3T3-L1 ([1]; 10 microM): 113 % to control | AMPK activation (% to control) 3T3-L1 ([1]; 100 microM): 248 % to control | AMPK activation (% to control) 3T3-L1 ([1]; 200 microM): 322 % to control | AMPK activation (% to control) Hep G2 ([2]; 1 microM): 110 % to control | AMPK activation (% to control) Hep G2 ([2]; 10 microM): 134 % to control | AMPK activation (% to control) Hep G2 ([2]; 100 microM): 237 % to control | AMPK activation (% to control) Hep G2 ([2]; 200 microM): 319 % to control | AMPK activation (% to control) C2C12 ([3]; 1 microM): 105 % to control | AMPK activation (% to control) C2C12 ([3]; 10 microM): 105 % to control | AMPK activation (% to control) C2C12 ([3]; 100 microM): 224 % to control | AMPK activation (% to control) C2C12 ([3]; 200 microM): 318 % to control

Cc1c[nH]c(=O)nc1N [Example 5-methylcytosine, 5-methylcytosine]
AMPK activation (% to control) 3T3-L1 ([1]; 1 microM): 115 % to control | AMPK activation (% to control) 3T3-L1 ([1]; 10 microM): 161 % to control | AMPK activation (% to control) 3T3-L1 ([1]; 100 microM): 253 % to control | AMPK activation (% to control) 3T3-L1 ([1]; 200 microM): 356 % to control | AMPK activation (% to control) Hep G2 ([2]; 1 microM): 107 % to control | AMPK activation (% to control) Hep G2 ([2]; 10 microM): 114 % to control | AMPK activation (% to control) Hep G2 ([2]; 100 microM): 218 % to control | AMPK activation (% to control) Hep G2 ([2]; 200 microM): 317 % to control | AMPK activation (% to control) C2C12 ([3]; 1 microM): 116 % to control | AMPK activation (% to control) C2C12 ([3]; 10 microM): 157 % to control | AMPK activation (% to control) C2C12 ([3]; 100 microM): 241 % to control | AMPK activation (% to control) C2C12 ([3]; 200 microM): 338 % to control
